Experiments:
[1] = test system: middle cerebral artery occlusion (MCAO) brain infarction; assay: MCAO transient focal ischemia, BVT 2733 (Example 1); type: in vivo; details: rat, 90 min MCAO, bolus 90 mg/kg at 4.5 h and 8.5 h post-occlusion, 24 h reperfusion
Experimental: BVT 2733 was tested in the following MCAO protocol. A middle cerebral artery (MCA) occlusion was used to induce temporary cerebral ischemia. It involves anesthetizing the rat, making an incision in the ventral neck region to isolate the common carotid artery and the internal and external carotid arteries. […] A silicone-coated mono filament is then inserted into the external carotid artery and woven through the artery into the internal carotid until it can occlude blood flow to the middle cerebral artery (MCA). The filament is removed after 90 min. After removal of the filament, the external carotid stump is tied shut and the clamps removed to allow the return of blood flow to the brain. The incision will be closed with wound clips. Post surgery, animals are observed until recovery from anesthesia.
During the surgery, animals are kept on a thermostat-regulated heating pad to maintain the body and head temperatures at 37° C. […]
The body core temperature of the animal is measured regularly, up to 1 day of recovery in some animals. […] Temperatures are measured manually using a rectal probe. […]
After 24 hours of reperfusion, the animals are sacrificed. […] Infarction volume was measured by digital imaging and image analysis software. Infarction volumes are determined in cortex and striatum and expressed as a percentage of the total brain volume. […]

human 11βHSD2 = target: T1, human 11βHSD2 (Homo sapiens, UniProt P80365); details: cited from earlier work
T1 sequence (P80365 1-405): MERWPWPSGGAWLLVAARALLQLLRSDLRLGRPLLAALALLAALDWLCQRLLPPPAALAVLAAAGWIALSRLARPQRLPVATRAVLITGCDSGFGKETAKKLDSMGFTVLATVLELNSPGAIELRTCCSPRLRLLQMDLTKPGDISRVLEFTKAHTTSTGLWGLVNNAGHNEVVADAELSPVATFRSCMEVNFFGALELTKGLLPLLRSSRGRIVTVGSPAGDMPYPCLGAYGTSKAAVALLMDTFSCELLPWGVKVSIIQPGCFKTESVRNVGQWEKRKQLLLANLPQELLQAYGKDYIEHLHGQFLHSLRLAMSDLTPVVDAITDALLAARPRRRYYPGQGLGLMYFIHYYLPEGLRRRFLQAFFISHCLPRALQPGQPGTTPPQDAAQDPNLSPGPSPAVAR

[2] = test system: middle cerebral artery occlusion (MCAO) brain infarction; assay: MCAO transient focal ischemia, carbenoxolone (Example 2); type: in vivo, rat
Description: The method used is a middle cerebral artery (MCA) occlusion to induce temporary cerebral ischemia. It involves anesthetizing the rat, making an incision in the ventral neck region to isolate the common carotid artery and the internal and external carotid arteries. […] A silicone-coated mono filament is then inserted into the external carotid artery and woven through the artery into the internal carotid until it can occlude blood flow to the middle cerebral artery (MCA). The filament can then be tied in place (permanent occlusion) or removed after a short amount of time depending on the desired degree of ischemic damage (3 minutes to 2 hours). After removal of the filament, the external carotid stump is tied shut and the clamps removed to allow the return of blood flow to the brain. The incision was closed with wound clips. Post surgery, animals were observed until recovery from anesthesia. During the surgery, animals were kept on a thermostat-regulated heating pad to maintain the body and head temperatures at 37° C. To inhibit the blood from clotting 90 IU.kg^−1 Heparin was administered intravenously to the animal after occlusion of MCAO. The body core temperature of the animal was measured regularly, up to 1 day of recovery in some animals. […] Temperatures are measured manually using a rat probe. […] Infarction volume was measured by digital imaging and image analysis software. […]

Compound	neuroprotection (FIG. 1) [1]	infarction volume in cortex and striatum as percentage of total brain volume, versus vehicle ([1]; TTC staining)	IC50 (human 11βHSD2)	neuroprotection ([2]; rat MCAO, carbenoxolone administered at 4 to 6 hours post-occlusion)	infarction volume in cortex and striatum as percentage of total brain volume, versus vehicle ([2]; rat, 90 min MCAO, bolus 20 mg at 5 min of reperfusion plus infusion 1.6 mg/h for 24 hours, TTC staining)
Cc1c(Cl)cccc1S(=O)(=O)Nc1nc(CC(=O)N2CCN(C)CC2)cs1 [BVT 2733, 3-Chloro-2-methyl-N-{4-[2-(4-methyl-piperazin-1-yl)-2-oxo-ethyl]-thiazol-2-yl}-benzenesulfonamide]	potent and significant neuroprotection	smaller infarction compared to vehicle treated rats	> 10 µM		
CC1(C)[C@@H](OC(=O)CCC(=O)O)CC[C@]2(C)[C@H]3C(=O)C=C4[C@@H]5C[C@@](C)(C(=O)O)CC[C@]5(C)CC[C@@]4(C)[C@]3(C)CC[C@@H]12 [carbenoxolone]				potent neuroprotection	smaller infarction compared to vehicle treated rats

— patent US20050137209A1, “Treatment of neurologic disorders with inhibitors of 11beta-HSD1” (AGY Therapeutics, Inc., priority 2003, published 2005)
